Results taken from article PMC10892497, “Discovery of Pyrano[2,3-c]pyrazole Derivatives as Novel Potential Human Coronavirus Inhibitors: Design, Synthesis, In Silico, In Vitro, and ADME Studies” (Pharmaceuticals, 2024).
Like-named read-outs stand apart in the source and are kept apart here.

Columns and labels:
[1] = MTT assay for cellular toxicity; details: African green monkey
HCoV-229E [2] = test: Cytopathic inhibition assay (crystal violet); details: for antiviral activity against HCoV-229E (in words): Vero-E6; for IC50: cytopathic inhibition assay
HCoV-229E [3] = test: Mode of action using plaque assay (virucidal, adsorption, replication); format: cell-based, human coronavirus 229E; details: replication mechanism
[4] = target: T1, SARS-CoV2 protease enzyme (3CL protease, M^pro) (Severe acute respiratory syndrome coronavirus 2, UniProt P0DTD1); test: Protease (SARS-CoV2) inhibition test, 3CL Protease Test Kit; format: biochemical
T1 construct: provided with 30 µL of diluted 3CL Protease enzyme solution (M^pro); purchased BPS Bioscience, San Diego, CA, USA #79955-1

[5] = Human coronavirus 229E, Vero C1008, HCoV-229E in Vero-E6 cells
[6] = Vero-E6 cells infected with HCoV-229E

| SMILES | CC50 at 48 h [1] [µM] | selectivity ratio (HCoV-229E [2]) | antiviral activity against HCoV-229E (in words) (HCoV-229E [2]) | IC50 (HCoV-229E [2]; [5]) [µM] | IC50 (HCoV-229E [2]; HCoV-229E in Vero-E6 cells) [µM] | reduction percentage, replication phase (HCoV-229E [3]) [%] | selectivity ratio (HCoV-229E [2]; [6]) | IC50 [4] [µM] | melting point [°C] |
| --- | --- | --- | --- | --- | --- | --- | --- | --- | --- |
| Cc1n[nH]c2c1C(c1cccs1)c1c(N)ncnc1O2 (stereo not drawn) [Compound 2] | 749 | 2.4 | minimal antiviral activity | 309 | – | – | – | – | – |
| Cc1n[nH]c2c1C(c1cccs1)C(C#N)=C(/N=C/c1nncn1C)O2 (stereo not drawn) [Compound 4] | 67.5 | 0.9 | did not | 78.1 | 70.1 | – | – | – | – |
| Cc1n[nH]c2c1C(c1cccs1)C(C#N)=C(N1C(=O)CSC1c1nncn1C)O2 (stereo not drawn) [Compound 5] | 95.4 | 1.86 | minimal antiviral activity | 51.2 | – | – | – | – | – |
| Cc1n[nH]c2c1C(c1cccs1)C(C#N)=C(N1C(=O)C(Cl)C1c1nncn1C)O2 (stereo not drawn) [Compound 6] | 585 | – | moderate efficacies | 65.6 | 89.4 | 53.6 | 7.6 | 105 | – |
| COP(=O)(OC)C1(c2csnn2)NC2=C(C1=O)C(c1cccs1)c1c(C)n[nH]c1O2 (stereo not drawn) [Compound 7, dimethyl(3-methyl-5-oxo-6-(1,2,3-thiadiazol-4-yl)-4-(thiophen-2-yl)-4,5,6,7-tetrahydro-1H-pyrrolo[3′,2′:5,6]pyrano[2,3-c]pyrazol-6-yl)phosphonate] | 190 | 4.3 | moderate efficacies | 35.8 | 25.8 | 60.7 | – | 772 | – |
| Cc1n[nH]c2c1C(c1cccs1)C1=C(NC(c3csnn3)c3c(C(F)(F)F)nn(C)c3OC1=N)O2 (stereo not drawn) [Compound 8] | 45.3 | 0.6 | did not | 86.2 | 69.1 | – | – | – | – |
| CCO/C=N/C1=C(C#N)C(c2cccs2)c2c(C)n[nH]c2O1 (stereo not drawn) [Compound 9] | 365 | 2.3 | minimal antiviral activity | 134 | 134 | – | – | – | – |
| Cc1n[nH]c2c1C(c1cccs1)c1c(ncn(N)c1=N)O2 (stereo not drawn) [Compound 10] | 25.4 | 1.3 | minimal antiviral activity | – | – | – | – | – | – |
| Cc1n[nH]c2c1C(c1cccs1)c1c(ncn3[nH]c(=S)nc13)O2 (stereo not drawn) [Compound 11] | 19.7 | 1.7 | minimal antiviral activity | 16 | 10.9 | – | – | – | – |
| Cc1n[nH]c2c1C(c1cccs1)c1c(ncn3ncnc13)O2 (stereo not drawn) [Compound 12] | 66.6 | 3.5 | minimal antiviral activity | 18.6 | – | – | – | – | – |
| Cc1n[nH]c2c1C(c1cccs1)c1c(ncn3nc(-c4nc[nH]n4)nc13)O2 (stereo not drawn) [Compound 13] | 49.8 | 0.46 | did not | 88.8 | 88.8 | – | – | – | – |
| Cc1n[nH]c2c1C(c1cccs1)C(C#N)=C(/N=C/[C@H](O)[C@@H](O)[C@H](O)CO)O2 (stereo partly drawn) [Compound 14] | 507 | – | moderate efficacies | 78.7 | – | 55 | 6.5 | 180 | – |
| Cc1n[nH]c2c1C(c1cccs1)C(C#N)=C(/N=C/[C@@H](O)[C@H](O)[C@H](O)CO)O2 (stereo partly drawn) [Compound 15] | 146 | 1.18 | minimal antiviral activity | 123 | 123 | – | – | – | > 300 |
| Cc1n[nH]c2c1C(c1cccs1)C(C#N)=C(/N=C/[C@@H](O)[C@@H](O)[C@H](O)[C@H](O)CO)O2 (stereo partly drawn) [Compound 17] | 183 | 1.7 | minimal antiviral activity | 95.4 | – | – | – | – | > 300 |
| Cc1n[nH]c2c1C(c1cccs1)C(C#N)=C(/N=C/[C@H](O)[C@@H](O)[C@@H](O)[C@H](O)CO)O2 (stereo partly drawn) [Compound 18] | 567 | – | – | 44.9 | – | 82.2 | 12.6 | 66.1 | > 300 |
| CCC[C@@]1(CCc2ccccc2)CC(O)=C([C@H](CC)c2cccc(NS(=O)(=O)c3ccc(C(F)(F)F)cn3)c2)C(=O)O1 [tipranavir, reference compound] | – | – | – | – | – | – | – | 22.1 | – |
